Laboratory results taken from PMC4563558, “Discovery of a series of novel phenylpiperazine derivatives as EGFR TK inhibitors” (Scientific Reports, 2015).

What was measured:
EGFR = target: T1, EGFR (Homo sapiens, UniProt P00533); test: Kinase selectivity assay (kit), EGFR; type: biochemical; conditions: read-out: Inhibition of EGFR IC50
T1 construct: purchased Bio-Swamp
Description: (§1) The EGFR, VEGFR2, bFGF and PDGFR Kinase Assay Kit were purchased from Bio-Swamp. The experiments were performed according to the manufacturer’s instructions.

Lung cells = test: MTT assay, human normal lung cell line; type: cell-based; conditions: read-out: IC50 ± SD, Lung cells
Description: (§2) To test the antiproliferative activities of the synthesized compounds (see supplementary Scheme S1 and S2), the target compounds were evaluated in vitro antiproliferation assays against three human cancer cell lines (MCF-7, HeLa and A549) and one human normal lung cell line.
(§3) The in vitro anticancer activities of the prepared compounds against MCF-7, HeLa and A549 cell lines were evaluated as described in the literature[23] with some modifications. Target tumor cells were grown to log phase in DMEM medium supplemented with 10% fetal bovine serum. After reaching a dilution of 1 × 10^5 cells mL^−1 with the medium, 100 μL of the obtained cell suspension was added to each well of 96-well culture plates. Subsequently, incubation was performed at 37 °C in 5% CO2 atmosphere for 48 h before the cytotoxicity assessment. Tested samples at preset concentrations were added to 6 wells with Erlotinib being employed as a positive reference. After 72 h exposure period, 25 μL of PBS containing 2.5 mg mL^−1 of MTT was added to each well. After 4 h, the medium was replaced by 150 μL DMSO to dissolve the purple formazan crystals produced. The absorbance at 570 nm of each well was measured with an ELISA plate reader. The data represented the mean of three independent experiments in triplicate and were expressed as means ± SD. The IC50 value was defined as the concentration at which 50% of the cells could survive.

HeLa = test: MTT antiproliferation assay, HeLa; type: cell-based; conditions: Homo sapiens, 72 h exposure, read-out: IC50 ± SD, HeLa
Description: as §2, §3

Erythrocytes = test: Hemolysis test; type: cell-based; conditions: human erythrocytes, 3 h incubation
Description: Hemolytic activity was assayed using fresh capillary human blood. Erythrocytes were collected by centrifuging the blood three times in chilled phosphate buffered saline (PBS at 4 °C) at 1000 × g for 10 min. The final pellet was resuspended in PBS to give a 2% w/v solution. Using a microtitre plate, 100 μL of the erythrocyte solution was added to dextran, PLL, stearyl-PLL or stearyl-PLL+LDL (1–1000/μg/mL) in a volume of […]. Samples were then incubated for 3 h and the microtitre plate was centrifuged then at 1000 × g for 10 min and the supernatants (100 μL) transferred into a new microtitre plate. Hemoglobin release was determined spectrophotometrically using a microtitre plate reader (absorbance at 550 nm). Results were expressed as the amount of released hemoglobin induced by the compounds as a percentage of the total. Hemolysis test was tested according to the guide of biological evaluation of medical device (SFDA, China).

VEGFR2 = target: T2, VEGFR2 (Homo sapiens, UniProt P35968); test: Kinase selectivity assay (kit), VEGFR2; type: biochemical; conditions: read-out: Inhibition of VEGFR2 IC50
T2 construct: purchased Bio-Swamp
T2 sequence (P35968 20-1356, species assumed): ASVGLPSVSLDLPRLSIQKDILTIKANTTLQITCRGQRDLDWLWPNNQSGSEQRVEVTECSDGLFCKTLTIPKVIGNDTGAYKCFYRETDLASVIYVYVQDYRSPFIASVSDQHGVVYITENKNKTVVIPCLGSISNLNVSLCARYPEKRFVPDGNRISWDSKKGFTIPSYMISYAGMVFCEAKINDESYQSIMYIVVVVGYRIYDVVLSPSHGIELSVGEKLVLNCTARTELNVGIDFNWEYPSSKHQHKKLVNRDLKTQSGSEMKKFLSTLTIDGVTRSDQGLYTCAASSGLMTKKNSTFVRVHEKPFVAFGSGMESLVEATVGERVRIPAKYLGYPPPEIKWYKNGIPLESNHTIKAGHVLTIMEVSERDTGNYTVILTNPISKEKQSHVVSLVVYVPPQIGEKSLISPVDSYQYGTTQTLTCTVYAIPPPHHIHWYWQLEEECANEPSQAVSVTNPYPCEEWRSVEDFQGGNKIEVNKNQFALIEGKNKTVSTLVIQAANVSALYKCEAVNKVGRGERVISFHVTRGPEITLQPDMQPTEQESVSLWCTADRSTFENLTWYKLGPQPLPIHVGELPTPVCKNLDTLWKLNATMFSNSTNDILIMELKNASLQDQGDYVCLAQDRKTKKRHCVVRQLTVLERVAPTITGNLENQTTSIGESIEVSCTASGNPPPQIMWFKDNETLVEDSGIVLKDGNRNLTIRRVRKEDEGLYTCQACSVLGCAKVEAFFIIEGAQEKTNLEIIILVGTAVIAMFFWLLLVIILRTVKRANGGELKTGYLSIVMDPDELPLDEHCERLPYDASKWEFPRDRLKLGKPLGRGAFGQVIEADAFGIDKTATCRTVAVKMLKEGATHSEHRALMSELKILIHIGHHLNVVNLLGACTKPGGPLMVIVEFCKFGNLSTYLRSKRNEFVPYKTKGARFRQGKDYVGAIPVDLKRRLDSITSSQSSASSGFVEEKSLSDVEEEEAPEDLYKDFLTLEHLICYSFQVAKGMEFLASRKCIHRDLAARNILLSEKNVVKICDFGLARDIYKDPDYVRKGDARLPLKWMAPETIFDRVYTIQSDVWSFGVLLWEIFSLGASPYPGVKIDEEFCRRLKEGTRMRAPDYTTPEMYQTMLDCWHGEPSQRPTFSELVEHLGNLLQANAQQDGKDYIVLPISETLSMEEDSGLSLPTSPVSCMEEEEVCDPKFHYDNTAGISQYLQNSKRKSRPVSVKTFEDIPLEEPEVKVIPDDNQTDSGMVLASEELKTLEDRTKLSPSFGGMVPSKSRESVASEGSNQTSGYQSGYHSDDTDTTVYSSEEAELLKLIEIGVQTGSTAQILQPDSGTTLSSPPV
Description: (§4) To validate whether the above anti-proliferative effect was produced by interaction of EGFR protein and the synthesized compounds, the synthesized compounds were evaluated for their abilities to inhibit the activity of four protein kinases relevant to cancer: EGFR, VEGFR2, bFGF, PDGFR. […] Additionally, the activity data inferred that the IC50 values of these compounds shared a similar tendency with their relevant IC50 values of anti-proliferative assay. […] Therefore, we could conclude that the synthesized inhibitors can inhibit the function of EGFR and the anti-proliferative effect was produced partly by interaction of EGFR protein and the compounds.
as §1

[1] = Acute oral toxicity, bodyweights; type: in vivo; conditions: mice; for Bodyweights 0 day ± SD: day 0; for Bodyweights 7 days ± SD: day 7
Description: Before the acute toxicity experiment, mice were stopped being served food but water was kept for 3 h. The test substances were dissolved in maize germ oil[24]. The preliminary experiment was performed as follows: Four dose levels, 100, 500, 2000, and 5000 mg/kg body weight and three mice for each level were used. We observed the death and evident toxicity in 7 days to determine the general concentration range. Then the administration doses were graded with geometric progression for ease of the calculation of LD50. Mice were randomly divided into groups (10 mice/group). […] The control groups received maize germ oil only. After the administration, food was withheld for 2 h.

PDGFR = test: Kinase selectivity assay (kit), PDGFR; type: biochemical; conditions: read-out: Inhibition of PDGFR IC50
Description: as §4, §1

in vitro = type: cell-based; conditions: mouse
Description: The cytotoxic activity in vitro was measured against mouse fibroblast NIH-3T3 cells using the MTT assay. Cells were cultured in a 96-well plate at a density of 5 × 10^5 cells and different concentrations of compounds were respectively added to each well. The incubation was permitted at 37 °C, 5% CO2 atmosphere for 24 h before the cytotoxicity assessments. 20 μL MTT reagent (4 mg/mL) was added per well 4 h before the end of the incubation. Four hours later, the plate was centrifuged at 1200 rcf for 5 min and the supernatants were removed, each well was added with 200 μL DMSO. The absorbance was measured at a wavelength of 490 nm (OD 490 nm) on an ELISA microplate reader. Three replicate wells were used for each concentration and each assay was measured three times, after which the average of IC50 was calculated.

MCF-7 = test: MTT antiproliferation assay, MCF-7; type: cell-based; conditions: Homo sapiens, MCF7, 72 h exposure, read-out: IC50 ± SD, MCF-7
Description: as §2, §3

A549 = test: MTT antiproliferation assay, A549; type: cell-based; conditions: Homo sapiens, 72 h exposure, read-out: IC50 ± SD, A549
Description: as §2, §3

bFGF = test: Kinase selectivity assay (kit), bFGF; type: biochemical; conditions: read-out: Inhibition of bFGF IC50
Description: as §4, §1

[2] = test system: MCF-7, HeLa and A549 cell lines; test: Anticancer activities discussed in text (cell line not specified); type: cell-based, human; conditions: comparison within series and with positive control
Description: According to the data presented in Table 1, it could be concluded that the activity of the tested compounds may be correlated to the variation and modifications of structure.
as §3

A549 cells = test: Tumor volume in nude mice inoculated with A549 cells; type: in vivo; conditions: 20 mg/kg/2 days, day 14
Description: To further evaluate the antitumor effect of compound 3p in vivo, we performed an animal study. Mice were inoculated subcutaneously with A549 cells (5.0 × 10^6) on their shoulders. […]. […] […].
Male BALB/c nude mice, 35–40 days old and weighing 18–22 g, were supplied by Shanghai Laboratory Animal Limited Company. The mice were raised in air-conditioned rooms under controlled lighting (12 h lighting/day) and were fed with standard laboratory food and water ad libitum. Before injection into the mice, the lung cancer cells (A549) were harvested by trypsinization and washed three times with cold serum-free medium and then injected in a total volume of 0.1 mL using a 1-mL latex-free syringe (BD) within 30 min of harvest. Mice were inoculated subcutaneously with A549 cells (5.0 × 10^6) on their shoulders. When the tumor had increased to 100 mm^3 , the mice were equally randomized into 4 groups (with 6 mice/group): saline tumor control group; compound 3p 20 mg/kg/2 days group; compound 3p 40 mg/kg/2 days group; […]. The control group received 0.9% normal saline. Tumor size was measured once every 2 days in two per-pendicular dimensions with Vernier calipers and converted to tumor volume (TV) using the formula: (ab^2)/2, where a and b refer to the longer and shorter dimensions, respectively. The body weight of the animals was measured twice a week at the same time as the tumor dimension measurement and the mortality was monitored daily. After the treatments, all mice were killed and weighed simultaneously, and then tumor was segregated and weighed.

T1 sequence (P00533 25-1210): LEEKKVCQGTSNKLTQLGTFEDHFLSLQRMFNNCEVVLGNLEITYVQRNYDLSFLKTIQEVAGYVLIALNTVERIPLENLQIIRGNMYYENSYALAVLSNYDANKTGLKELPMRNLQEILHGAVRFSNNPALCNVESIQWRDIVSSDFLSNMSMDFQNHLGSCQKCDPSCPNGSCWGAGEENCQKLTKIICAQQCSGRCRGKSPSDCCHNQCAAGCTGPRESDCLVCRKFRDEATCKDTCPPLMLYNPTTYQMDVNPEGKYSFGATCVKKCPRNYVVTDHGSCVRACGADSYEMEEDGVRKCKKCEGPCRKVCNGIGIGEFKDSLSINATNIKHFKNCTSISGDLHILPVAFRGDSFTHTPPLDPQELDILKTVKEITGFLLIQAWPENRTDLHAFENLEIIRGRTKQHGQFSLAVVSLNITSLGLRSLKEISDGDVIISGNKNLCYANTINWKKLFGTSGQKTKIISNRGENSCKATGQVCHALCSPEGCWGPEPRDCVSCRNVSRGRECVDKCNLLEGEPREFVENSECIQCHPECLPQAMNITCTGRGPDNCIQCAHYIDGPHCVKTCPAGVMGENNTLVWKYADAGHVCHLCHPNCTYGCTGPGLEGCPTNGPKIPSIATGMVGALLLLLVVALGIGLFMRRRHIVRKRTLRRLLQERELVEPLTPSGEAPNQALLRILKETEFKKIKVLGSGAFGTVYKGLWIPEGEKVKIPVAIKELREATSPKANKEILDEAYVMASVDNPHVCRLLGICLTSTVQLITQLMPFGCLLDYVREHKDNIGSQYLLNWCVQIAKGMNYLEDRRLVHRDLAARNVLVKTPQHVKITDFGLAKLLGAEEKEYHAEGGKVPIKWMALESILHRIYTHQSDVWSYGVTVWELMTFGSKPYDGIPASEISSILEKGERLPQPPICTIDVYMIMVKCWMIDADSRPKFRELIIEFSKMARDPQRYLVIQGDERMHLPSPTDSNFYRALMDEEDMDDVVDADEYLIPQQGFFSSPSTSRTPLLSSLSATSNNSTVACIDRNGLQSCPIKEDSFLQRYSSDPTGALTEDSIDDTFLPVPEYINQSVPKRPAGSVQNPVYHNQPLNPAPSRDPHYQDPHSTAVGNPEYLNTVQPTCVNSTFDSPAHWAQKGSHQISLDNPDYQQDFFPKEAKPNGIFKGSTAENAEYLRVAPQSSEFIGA

## COc1cc(OC)nc(NC(=O)CN2CCN(c3ccccc3F)CC2)n1 [3c, N-(4,6-Dimethoxypyrimidin-2-yl)-2-(4-(2-fluorophenyl)piperazin-1-yl)acetamide]
EGFR
  IC50: 1350 ± 6 nM
Lung cells
  IC50: 178 ± 2.02 µM
HeLa
  IC50: 2.69 ± 0.1 µM
Erythrocytes
  Hemolysis LC30 (lytic concentration 30%): >10 mg/mL
VEGFR2
  IC50: 8.94 ± 0.73 µM
[1]
  Bodyweights 0 day ± SD: 21.09 ± 1.16 g
  Bodyweights 7 days ± SD: 26.09 ± 0.93 g
PDGFR
  IC50: 33.8 ± 1.94 µM
In vitro
  IC50 at 24 h: 230 ± 3.15 µM
MCF-7
  IC50: 4130 ± 10 nM
A549
  IC50: 550 ± 20 nM
bFGF
  IC50: 25.4 ± 2.34 µM

## COc1cc(OC)nc(NC(=O)CN2CCN(c3ccccc3)CC2)n1 [3d, N-(4,6-Dimethoxypyrimidin-2-yl)-2-(4-phenylpiperazin-1-yl)acetamide]
[2]
  Anticancer / antitumor activity (in words): worst anticancer activity
EGFR
  IC50: 5110 ± 30 nM
Lung cells
  IC50: 136 ± 3.15 µM
HeLa
  IC50: 10.2 ± 0.28 µM
Erythrocytes
  Hemolysis LC30 (lytic concentration 30%): >10 mg/mL
VEGFR2
  IC50: 10.1 ± 1.08 µM
[1]
  Bodyweights 0 day ± SD: 21.18 ± 2.15 g
  Bodyweights 7 days ± SD: 25.57 ± 1.56 g
PDGFR
  IC50: 8.5 ± 0.09 µM
In vitro
  IC50 at 24 h: 150 ± 2.56 µM
MCF-7
  IC50: 9870 ± 1000 nM
A549
  IC50: 2170 ± 20 nM
bFGF
  IC50: 18.5 ± 2.11 µM

## COc1cc(OC)nc(NC(=O)CN2CCN(c3ccccc3OC)CC2)n1 [3e, N-(4,6-Dimethoxypyrimidin-2-yl)-2-(4-(2-methoxyphenyl)piperazin-1-yl)acetamide]
[2]
  Anticancer / antitumor activity (in words): better anticancer activities compared to the positive control
EGFR
  IC50: 1010 ± 4 nM
Lung cells
  IC50: 189.3 ± 1.78 µM
HeLa
  IC50: 1.55 ± 0.006 µM
Erythrocytes
  Hemolysis LC30 (lytic concentration 30%): >10 mg/mL
VEGFR2
  IC50: 5.33 ± 0.05 µM
[1]
  Bodyweights 0 day ± SD: 21.11 ± 1.34 g
  Bodyweights 7 days ± SD: 25.34 ± 1.15 g
PDGFR
  IC50: 10 ± 1.17 µM
In vitro
  IC50 at 24 h: 173 ± 5.31 µM
MCF-7
  IC50: 2570 ± 20 nM
A549
  IC50: 1970 ± 1 nM
bFGF
  IC50: 11.5 ± 0.89 µM

## COc1cc(OC)nc(NC(=O)CN2CCN(c3ccc([N+](=O)[O-])cc3)CC2)n1 [3f, N-(4,6-Dimethoxypyrimidin-2-yl)-2-(4-(4-nitrophenyl)piperazin-1-yl)acetamide]
EGFR
  IC50: 2120 ± 80 nM
Lung cells
  IC50: 202 ± 4.05 µM
HeLa
  IC50: 4.99 ± 0.07 µM
Erythrocytes
  Hemolysis LC30 (lytic concentration 30%): >10 mg/mL
VEGFR2
  IC50: 7.67 ± 0.07 µM
[1]
  Bodyweights 0 day ± SD: 20.57 ± 1.43 g
  Bodyweights 7 days ± SD: 27.25 ± 1.50 g
PDGFR
  IC50: 24.5 ± 2.56 µM
In vitro
  IC50 at 24 h: 155 ± 3.05 µM
MCF-7
  IC50: 2090 ± 10 nM
A549
  IC50: 80 ± 3 nM
bFGF
  IC50: 21.5 ± 0.69 µM

## COc1ccc(N2CCN(CC(=O)Nc3nc(OC)cc(OC)n3)CC2)cc1 [3i, N-(4,6-Dimethoxypyrimidin-2-yl)-2-(4-(4-methoxyphenyl)piperazin-1-yl)acetamide]
[2]
  Anticancer / antitumor activity (in words): better anticancer activities compared to the positive control
EGFR
  IC50: 910 ± 6 nM
Lung cells
  IC50: 197.5 ± 1.74 µM
HeLa
  IC50: 0.9 ± 0.07 µM
Erythrocytes
  Hemolysis LC30 (lytic concentration 30%): >10 mg/mL
VEGFR2
  IC50: 3.99 ± 0.08 µM
[1]
  Bodyweights 0 day ± SD: 21.33 ± 0.67 g
  Bodyweights 7 days ± SD: 25.83 ± 1.30 g
PDGFR
  IC50: 31.8 ± 3.12 µM
In vitro
  IC50 at 24 h: 198.5 ± 1.13 µM
MCF-7
  IC50: 2980 ± 90 nM
A549
  IC50: 2220 ± 50 nM
bFGF
  IC50: 22.35 ± 0.1 µM

## COc1cc(OC)nc(NC(=O)CN2CCN(c3ccccn3)CC2)n1 [3m, N-(4,6-Dimethoxypyrimidin-2-yl)-2-(4-(pyridin-2-yl)piperazin-1-yl)acetamide]
EGFR
  IC50: 2550 ± 670 nM
Lung cells
  IC50: 165.8 ± 0.59 µM
HeLa
  IC50: 5.11 ± 0.006 µM
Erythrocytes
  Hemolysis LC30 (lytic concentration 30%): >10 mg/mL
VEGFR2
  IC50: 7.23 ± 0.78 µM
[1]
  Bodyweights 0 day ± SD: 22.43 ± 1.02 g
  Bodyweights 7 days ± SD: 22.09 ± 1.02 g
PDGFR
  IC50: 50 ± 4.76 µM
In vitro
  IC50 at 24 h: 182 ± 3.22 µM
MCF-7
  IC50: 2870 ± 4 nM
A549
  IC50: 1550 ± 4 nM
bFGF
  IC50: 3.8 ± 0.036 µM

## COc1cc(OC)nc(NC(=O)CN2CCN(c3cccc(C(F)(F)F)c3)CC2)n1 [3r, N-(4,6-Dimethoxypyrimidin-2-yl)-2-(4-(3-(trifluoromethyl)phenyl)piperazin-1-yl)acetamide]
EGFR
  IC50: 1960 ± 6 nM
Lung cells
  IC50: 150 ± 3.03 µM
HeLa
  IC50: 4.02 ± 0.01 µM
Erythrocytes
  Hemolysis LC30 (lytic concentration 30%): >10 mg/mL
VEGFR2
  IC50: 6.95 ± 0.68 µM
[1]
  Bodyweights 0 day ± SD: 21.00 ± 1.01 g
  Bodyweights 7 days ± SD: 25.07 ± 1.21 g
PDGFR
  IC50: 3.87 ± 0.92 µM
In vitro
  IC50 at 24 h: 185 ± 2.16 µM
MCF-7
  IC50: 4970 ± 10 nM
A549
  IC50: 330 ± 70 nM
bFGF
  IC50: 33.9 ± 3.59 µM

## N.N.[Cl][Pt][Cl] [DDCP, reference compound]
Erythrocytes
  Hemolysis LC30 (lytic concentration 30%): >10 mg/mL

## C#Cc1cccc(Nc2ncnc3cc(OCCOC)c(OCCOC)cc23)c1 [Erlotinib, reference compound]
Lung cells
  IC50: 195.2 ± 1.27 µM
HeLa
  IC50: 0.11 ± 0.01 µM
MCF-7
  IC50: 150 ± 30 nM
A549
  IC50: 100 ± 0.4 nM
A549 cells
  Reduction of the growth of tumors: 49.09%
